The source of these data is patent US20150093744A1 (priority 2013, published 2015).

One experiment concerns TV. The settings on record: cited from earlier work.
The test system of another experiment is MNV. The settings on record: cited from earlier work.
For experiment [1], the system named is Tulane virus (TV).
Experiment [2] concerns Tulane virus (TV). This is another data set of the same source.
Experiment [3] concerns Tulane virus (TV). This is another data set of the same source.
Another experiment relates to FCV. The note with it: cited from earlier work.
Experiment [4] concerns Tulane virus capsid binding to Human Blood Group Antigen (HBGA) receptor.

Several values for one entry are separate records, joined by “and”; a condition that tells them apart may be missing. Equal values may be shown once. Read-outs that look alike come from different tables or passages of the source.

Take `CCO` [EtOH, ethanol]: in the experiment on HuNoV (GII.4 NoV), the Ct is recorded as 40.7 ± 1.4; the “Reduction(%)” value amounted to 99.3 ± 0.8%; the “completeness of inactivation of HuNoV” value was “not complete”; the “reduction in copy number” value is 99.33% and 88.5% and 99.3%. Further, in the experiment on HuNoV (GII.4 NoV), the “reduction in copy numbers” value is listed as below 3 log and the ΔCt turned out to be 9.7. Also, the “EtOH concentration required to exceed 4 D reduction in virus titer” value in the experiment with TV is 50-70%. The “EtOH concentration required to exceed 4 D reduction in virus titer” value in the experiment with MNV is recorded as 60%. For the same compound, in the experiment on Tulane virus (TV) [1], the “reduction of TV titer” value was “over 99.5%”. For the same compound, the “detection of virus genome or amplification of virus” value in the experiment with Tulane virus (TV) [2] is “neither virus genome nor amplification of virus was detectable”. For the same compound, the “detection of virus genome or amplification of virus” value in the experiment on Tulane virus (TV) [3] is on record as “neither virus genome nor amplification of virus was detectable”. Besides, the “EtOH concentration required to exceed 4 D reduction in virus titer” value in the experiment on FCV is 70%. Besides, the “Binding of viral capsid to Human Blood Group Antigen (HBGA)” value in experiment [4] was “significantly reduced”.
